According to PubChem BioAssay (NCI):
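Tested at 5 concentrations; 48 h exposure; 96-well plates; endpoints linearly interpolated, else capped at highest concentration. TGI: total growth inhibition.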

tested on: SNB-75 CNS; test: DTP human tumour cell line panel, 48 h

`C=CC(CCc1ccc(C(=O)OCC)cc1)c1c(N)nc(N)[nH]c1=O` (stereo not drawn) and `CCOP(C)(=O)C(N)Cc1ccc(OC)c(OC)c1` (stereo not drawn) cannot be ordered by TGI: greater than 100 µM for the first, greater than 100 µM for the second.

tested on: COLO 205 colon; test: DTP human tumour cell line panel, 48 h

`NP(=O)(Oc1c2occc2cc2ccc(=O)oc12)N(CCCl)CCCl` (stereo not drawn) and `C=CC(CCc1ccc(C(=O)OCC)cc1)c1c(N)nc(N)[nH]c1=O` (stereo not drawn) cannot be ordered by TGI: greater than 100 µM for the first, greater than 100 µM for the second.

Going from `CCOC(=O)c1nc2ccc(C(F)(F)F)cc2nc1NCc1cc(OC)c(OC)c(OC)c1` to `CCOP(C)(=O)C(N)Cc1ccc(OC)c(OC)c1` (stereo not drawn), the TGI rises from 73.4 µM to greater than 100 µM.

Going from `CC(C)(C)OC(=O)NC(Cc1ccc(OCc2ccccc2)cn1)C(=O)N1CCCCC1` (stereo not drawn) to `O=C1CC(=Nc2ccc(Cl)cc2)C(c2ccccc2)N1c1ccccc1` (stereo not drawn), the TGI falls from 33.3 µM to 16.4 µM (2-fold).

Molecule `CCOC(=O)/C=C(/C(=O)OCC)n1ccc(=O)n(Cc2cn(COCCOC(C)=O)nn2)c1=O` has a TGI greater than 100 µM.

tested on: U251 CNS; test: DTP human tumour cell line panel, 48 h

`NP(=O)(Oc1c2occc2cc2ccc(=O)oc12)N(CCCl)CCCl` (stereo not drawn) and `C=CC(CCc1ccc(C(=O)OCC)cc1)c1c(N)nc(N)[nH]c1=O` (stereo not drawn) cannot be ordered by TGI: greater than 100 µM for the first, greater than 100 µM for the second.

`CC(C)(C)OC(=O)NC(Cc1ccc(OCc2ccccc2)cn1)C(=O)N1CCCCC1` (stereo not drawn) and `O=C1CC(=Nc2ccc(Cl)cc2)C(c2ccccc2)N1c1ccccc1` (stereo not drawn) cannot be ordered by TGI: greater than 100 µM for the first, greater than 100 µM for the second.

Compared with `CCOC(=O)/C=C(/C(=O)OCC)n1ccc(=O)n(Cc2cn(COCCOC(C)=O)nn2)c1=O`, `CCOP(C)(=O)C(N)Cc1ccc(OC)c(OC)c1` (stereo not drawn) is higher in TGI: 83.3 µM for the first, greater than 100 µM for the second.

tested on: HCC-2998 colon; test: DTP human tumour cell line panel, 48 h

`NP(=O)(Oc1c2occc2cc2ccc(=O)oc12)N(CCCl)CCCl` (stereo not drawn) and `C=CC(CCc1ccc(C(=O)OCC)cc1)c1c(N)nc(N)[nH]c1=O` (stereo not drawn) cannot be ordered by TGI: greater than 100 µM for the first, greater than 100 µM for the second.

`CCOC(=O)c1nc2ccc(C(F)(F)F)cc2nc1NCc1cc(OC)c(OC)c(OC)c1` and `CCOP(C)(=O)C(N)Cc1ccc(OC)c(OC)c1` (stereo not drawn) cannot be ordered by TGI: greater than 100 µM for the first, greater than 100 µM for the second.

`CC(C)(C)OC(=O)NC(Cc1ccc(OCc2ccccc2)cn1)C(=O)N1CCCCC1` (stereo not drawn) and `O=C1CC(=Nc2ccc(Cl)cc2)C(c2ccccc2)N1c1ccccc1` (stereo not drawn) cannot be ordered by TGI: greater than 100 µM for the first, greater than 100 µM for the second.

`CCOC(=O)/C=C(/C(=O)OCC)n1ccc(=O)n(Cc2cn(COCCOC(C)=O)nn2)c1=O` gave a TGI of 36.2 µM.

tested on: IGROV1 ovarian; test: DTP human tumour cell line panel, 48 h

`NP(=O)(Oc1c2occc2cc2ccc(=O)oc12)N(CCCl)CCCl` (stereo not drawn) and `C=CC(CCc1ccc(C(=O)OCC)cc1)c1c(N)nc(N)[nH]c1=O` (stereo not drawn) cannot be ordered by TGI: greater than 100 µM for the first, greater than 100 µM for the second.

`CCOC(=O)c1nc2ccc(C(F)(F)F)cc2nc1NCc1cc(OC)c(OC)c(OC)c1` and `CCOP(C)(=O)C(N)Cc1ccc(OC)c(OC)c1` (stereo not drawn) cannot be ordered by TGI: greater than 100 µM for the first, greater than 100 µM for the second.

`CC(C)(C)OC(=O)NC(Cc1ccc(OCc2ccccc2)cn1)C(=O)N1CCCCC1` (stereo not drawn) and `O=C1CC(=Nc2ccc(Cl)cc2)C(c2ccccc2)N1c1ccccc1` (stereo not drawn) cannot be ordered by TGI: greater than 100 µM for the first, greater than 100 µM for the second.

With `CCOC(=O)/C=C(/C(=O)OCC)n1ccc(=O)n(Cc2cn(COCCOC(C)=O)nn2)c1=O` the TGI was 31.9 µM.

tested on: SK-MEL-5 melanoma; test: DTP human tumour cell line panel, 48 h

`NP(=O)(Oc1c2occc2cc2ccc(=O)oc12)N(CCCl)CCCl` (stereo not drawn) and `C=CC(CCc1ccc(C(=O)OCC)cc1)c1c(N)nc(N)[nH]c1=O` (stereo not drawn) cannot be ordered by TGI: greater than 100 µM for the first, greater than 100 µM for the second.

`CCOC(=O)c1nc2ccc(C(F)(F)F)cc2nc1NCc1cc(OC)c(OC)c(OC)c1` and `CCOP(C)(=O)C(N)Cc1ccc(OC)c(OC)c1` (stereo not drawn) cannot be ordered by TGI: greater than 100 µM for the first, greater than 100 µM for the second.

`CC(C)(C)OC(=O)NC(Cc1ccc(OCc2ccccc2)cn1)C(=O)N1CCCCC1` (stereo not drawn) and `O=C1CC(=Nc2ccc(Cl)cc2)C(c2ccccc2)N1c1ccccc1` (stereo not drawn) are within 1.5-fold of each other in TGI: 31 µM for the first, 22.8 µM for the second.

With `CCOC(=O)/C=C(/C(=O)OCC)n1ccc(=O)n(Cc2cn(COCCOC(C)=O)nn2)c1=O` the TGI was 75.4 µM.

tested on: MALME-3M melanoma; test: DTP human tumour cell line panel, 48 h

`NP(=O)(Oc1c2occc2cc2ccc(=O)oc12)N(CCCl)CCCl` (stereo not drawn) and `C=CC(CCc1ccc(C(=O)OCC)cc1)c1c(N)nc(N)[nH]c1=O` (stereo not drawn) cannot be ordered by TGI: greater than 100 µM for the first, greater than 100 µM for the second.

First: CC(C)(C)OC(=O)NC(Cc1ccc(OCc2ccccc2)cn1)C(=O)N1CCCCC1 (stereo not drawn)
Second: O=C1CC(=Nc2ccc(Cl)cc2)C(c2ccccc2)N1c1ccccc1 (stereo not drawn)
The TGI of the first is higher: greater than 100 µM for the first, 90.8 µM for the second.

Molecule `CCOP(C)(=O)C(N)Cc1ccc(OC)c(OC)c1` (stereo not drawn) has a TGI greater than 100 µM.

tested on: LOX IMVI melanoma; test: DTP human tumour cell line panel, 48 h

`NP(=O)(Oc1c2occc2cc2ccc(=O)oc12)N(CCCl)CCCl` (stereo not drawn) and `C=CC(CCc1ccc(C(=O)OCC)cc1)c1c(N)nc(N)[nH]c1=O` (stereo not drawn) cannot be ordered by TGI: greater than 100 µM for the first, greater than 100 µM for the second.

`CCOC(=O)c1nc2ccc(C(F)(F)F)cc2nc1NCc1cc(OC)c(OC)c(OC)c1` and `CCOP(C)(=O)C(N)Cc1ccc(OC)c(OC)c1` (stereo not drawn) cannot be ordered by TGI: greater than 100 µM for the first, greater than 100 µM for the second.

`CC(C)(C)OC(=O)NC(Cc1ccc(OCc2ccccc2)cn1)C(=O)N1CCCCC1` (stereo not drawn) and `O=C1CC(=Nc2ccc(Cl)cc2)C(c2ccccc2)N1c1ccccc1` (stereo not drawn) are within 1.5-fold of each other in TGI: 71 µM for the first, 61.5 µM for the second.

`CCOC(=O)/C=C(/C(=O)OCC)n1ccc(=O)n(Cc2cn(COCCOC(C)=O)nn2)c1=O` gave a TGI of 41.9 µM.
